Usually IC50 stands for the point on the concentration scale where inhibition reaches its midpoint.

The target in the test is T1, human IGF-IR (Homo sapiens, UniProt P08069).
T1 construct: complete human IGF-IR cDNA: GenBank Acc; No. NM_000875; expressed in transfected cells; host or cells: NIH-3T3 mouse fibroblasts
The test is described as follows: cellular "Capture ELISA": IGF-I induced IGF-IR autophosphorylation. The format is cell-based. Conditions: NIH-3T3 mouse fibroblasts transfected with human IGF-IR cDNA, 90 min compound, 10 ng/ml IGF-I for 10 min. The procedure: In this assay the activity of the compounds of the invention against Insulin-like growth factor I (IGF-I) induced autophosphorylation of the IGF-IGF-IR is determined. The assay is conducted as follows:
The cells which overexpress human IGF-IGF-IR are cultured in Dulbecco's minimal essential (DMEM) medium, containing 10% Fetal Calf Serum (FCS). […] On day 3 the medium is discarded and the cells are incubated for 24 h in minimal medium (DMEM, containing 0.5% FCS). […] The cells are incubated for 90 min in the presence of a compound of formula I. Thereafter the cells are stimulated with 50 μl IGF-I (final concentration of IGF-I in the well=10 ng/ml; IGF-I is obtained from Sigma; Product Code: I3769) and incubated for 10 min at 37° C.
The medium is discarded and the cells are washed twice with PBS/O (=Phosphate-Buffered Saline without CaCl2) and lysed for 15 min on ice with 50 μl/well RIPA-buffer [50 mM Tris.HCl, pH=7.2, 120 mM NaCl, 1 mM EDTA, 6 mM EGTA, 1% NP-40, 20 mM NaF, 1 mM benzamidine, 15 mM sodium pyrophosphate, 1 mM Phenyl methyl sulphonyl fluoride (PMSF) and 0.5 mM Na3VO4] and shaken for 10 min using a 96-well plate shaker (=cellular extracts).
The plates are washed twice with 0.05% (v/v) Tween-20 in Phosphate-Buffered Saline (PBS) and once with nanopure H2O. […] After blocking, the plates are washed once with nanopure H2O.
After incubating the extracts and the secondary antibody for 2 h at 4° C., the extracts are discarded, the plates are washed twice with 0.05% (v/v) Tween-20 in PBS and once with nanopure water.
90 μl/well AP substrate (CDP-Star; obtained from Tropix; Cat. No.: MS100RY) are then added and the plates are incubated for 45 min at RT in the dark, followed by measuring AP activity in a Packard Top Count Microplate Scintillation Counter. The IC50 values for the compounds of formula I are calculated via linear regression analysis using the GraphPad In-stat program (GraphPad Software, USA).
Test for activity against IGF-I induced IGF-IR autophosphorylation using the cellular “Capture ELISA” test
The cellular “Capture ELISA” test is carried out as described above.
(ELISA stands for enzyme-linked immunosorbent assay.)

T1 sequence (P08069 31-1367): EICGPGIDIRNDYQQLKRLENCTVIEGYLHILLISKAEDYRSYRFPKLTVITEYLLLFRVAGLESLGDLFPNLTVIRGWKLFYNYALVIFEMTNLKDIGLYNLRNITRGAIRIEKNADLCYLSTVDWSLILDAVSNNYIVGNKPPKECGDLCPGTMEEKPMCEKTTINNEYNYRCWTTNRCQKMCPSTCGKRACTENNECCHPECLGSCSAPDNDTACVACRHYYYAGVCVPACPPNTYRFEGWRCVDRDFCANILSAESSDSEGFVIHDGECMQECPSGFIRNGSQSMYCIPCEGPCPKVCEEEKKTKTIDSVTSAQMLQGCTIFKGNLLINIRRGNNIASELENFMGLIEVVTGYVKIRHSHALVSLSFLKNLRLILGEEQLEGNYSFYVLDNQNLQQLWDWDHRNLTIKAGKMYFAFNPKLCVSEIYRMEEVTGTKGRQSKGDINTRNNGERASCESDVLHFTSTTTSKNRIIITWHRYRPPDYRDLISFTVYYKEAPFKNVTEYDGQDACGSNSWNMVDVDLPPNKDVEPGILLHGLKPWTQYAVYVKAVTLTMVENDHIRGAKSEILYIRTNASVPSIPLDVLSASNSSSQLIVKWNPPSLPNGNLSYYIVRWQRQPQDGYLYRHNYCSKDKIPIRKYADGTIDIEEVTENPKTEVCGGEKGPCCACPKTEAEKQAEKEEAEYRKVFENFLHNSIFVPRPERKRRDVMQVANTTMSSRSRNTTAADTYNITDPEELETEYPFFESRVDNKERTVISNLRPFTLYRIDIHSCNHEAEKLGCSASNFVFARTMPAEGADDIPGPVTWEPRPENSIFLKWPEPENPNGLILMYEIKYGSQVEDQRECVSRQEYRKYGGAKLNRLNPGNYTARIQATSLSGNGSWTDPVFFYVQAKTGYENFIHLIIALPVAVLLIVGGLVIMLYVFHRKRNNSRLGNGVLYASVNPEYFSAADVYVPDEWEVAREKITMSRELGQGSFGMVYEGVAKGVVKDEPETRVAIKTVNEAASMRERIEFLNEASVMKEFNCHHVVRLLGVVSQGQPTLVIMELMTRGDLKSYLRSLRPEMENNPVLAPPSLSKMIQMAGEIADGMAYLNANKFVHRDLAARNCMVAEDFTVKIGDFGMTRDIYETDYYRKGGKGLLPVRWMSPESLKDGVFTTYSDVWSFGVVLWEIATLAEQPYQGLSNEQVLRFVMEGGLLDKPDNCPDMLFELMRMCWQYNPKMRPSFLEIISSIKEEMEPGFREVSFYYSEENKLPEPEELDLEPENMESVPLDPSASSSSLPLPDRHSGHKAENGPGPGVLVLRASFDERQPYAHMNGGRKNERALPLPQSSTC

Regarding `NC(=O)NC[C@H]1C[C@@H](n2cc(-c3cccc(OCc4ccccc4)c3)c3c(N)ncnc32)C1` [Example 49, cis-{3-[4-Amino-5-(3-benzyloxy-phenyl)-pyrrolo[2,3-d]pyrimidin-7-yl]-cyclobutylmethyl}-urea], the IC50 turned out to be 0.04 µM.

With `CNC(=O)NC[C@H]1C[C@@H](n2cc(-c3cccc(OCc4ccccc4)c3)c3c(N)ncnc32)C1` [Example 88, cis-1-{3-[4-Amino-5-(3-benzyloxy-phenyl)-pyrrolo[2,3-d]pyrimidin-7-yl]-cyclobutylmethyl}-3-methyl-urea], the midpoint of inhibition, the IC50, lay at 0.057 µM. Consider `COC(=O)NC[C@H]1C[C@@H](n2cc(-c3cccc(OCc4ccccc4)c3)c3c(N)ncnc32)C1` [Example 23, cis-{3-[4-Amino-5-(3-benzyloxy-phenyl)-pyrrolo[2,3-d]pyrimidin-7-yl]-cyclobutylmethyl}-carbamic acid methyl ester], for which the IC50 was found to be 0.031 µM. With `Nc1ncnc2c1c(-c1cccc(OCc3ccccc3)c1)cn2[C@H]1C[C@@H](CN2CCSCC2)C1` [Example 81, cis-5-(3-Benzyloxy-phenyl)-7-(3-thiomorpholin-4-ylmethyl-cyclobutyl)-7H-pyrrolo[2,3-d]pyrimidin-4-ylamine] the figure was 0.08 µM; with `Cc1c(-c2cccc(OCc3ccccc3)c2)c2c(N)ncnc2n1[C@H]1C[C@H](CN2CCC[C@@H]2CO)C1` [Example 112, trans-((R)-1-{3-[4-Amino-5-(3-benzyloxy-phenyl)-6-methyl-pyrrolo[2,3-d]pyrimidin-7-yl]-cyclobutylmethyl}-pyrrolidin-2-yl)-methanol], 0.09 µM. With `NC(=O)[C@H]1CCCN1C[C@H]1C[C@@H](n2cc(-c3cccc(OCc4ccccc4)c3)c3c(N)ncnc32)C1` [Example 83, cis-(R)-1-{3-[4-Amino-5-(3-benzyloxy-phenyl)-pyrrolo[2,3-d]pyrimidin-7-yl]-cyclobutylmethyl}-pyrrolidine-2-carboxylic acid amide] the figure was 0.052 µM. With `Nc1ncnc2c1c(-c1cccc(OCc3ccccc3)c1)cn2[C@H]1C[C@H](CNC(=O)OCCN2CCOCC2)C1` [Example 96, trans-{3-[4-Amino-5-(3-benzyloxy-phenyl)-pyrrolo[2,3-d]pyrimidin-7-yl]-cyclobutylmethyl}-carbamic acid 2-morpholin-4-yl-ethyl ester] the figure was 0.05 µM; with `COC(=O)NC[C@H]1C[C@H](n2cc(-c3cccc(OCc4ccccc4)c3)c3c(N)ncnc32)C1` [Example 22, trans-{3-[4-amino-5-(3-benzyloxy-phenyl)-pyrrolo[2,3-d]pyrimidin-7-yl]-cyclobutylmethyl}-carbamic acid methyl ester], 0.08 µM. `CCN(CC)CCOC(=O)NC[C@H]1C[C@H](n2cc(-c3cccc(OCc4ccccc4)c3)c3c(N)ncnc32)C1` [Example 95, trans-{3-[4-amino-5-(3-benzyloxy-phenyl)pyrrolo[2,3-d]pyrimidin-7-yl]-cyclobutylmethyl}-carbamic acid 2-diethylamino-ethyl ester] yielded an IC50 of 0.08 µM. With `CCNC(=O)NC[C@H]1C[C@H](n2cc(-c3cccc(OCc4ccccc4)c3)c3c(N)ncnc32)C1` [Example 26, trans-1-{3-[4-amino-5-(3-benzyloxy-phenyl)-pyrrolo[2,3-d]pyrimidin-7-yl]-cyclobutylmethyl}-3-ethyl-urea] the figure was 0.055 µM; with `CCCNC(=O)NC[C@H]1C[C@H](n2cc(-c3cccc(OCc4ccccc4)c3)c3c(N)ncnc32)C1` [Example 28, trans-1-{3-[4-Amino-5-(3-benzyloxy-phenyl)-pyrrolo[2,3-d]pyrimidin-7-yl]-cyclobutylmethyl}-3-propyl-urea], 0.05 µM.

Take `CS(=O)(=O)NC[C@H]1C[C@@H](n2cc(-c3cccc(OCc4ccccc4)c3)c3c(N)ncnc32)C1` [Example 14, cis-N-{3-[4-Amino-5-(3-benzyloxy-phenyl)-pyrrolo[2,3-d]pyrimidin-7-yl]-cyclobutylmethyl}-methanesulfonamide]: inhibition was half-maximal at 0.03 µM (IC50). `Nc1ncnc2c1c(-c1cccc(OCc3ccccc3)c1)cn2[C@H]1C[C@@H](CNC(=O)CN2CCCCC2)C1` [Example 57, cis-N-{3-[4-Amino-5-(3-benzyloxy-phenyl)-pyrrolo[2,3-d]pyrimidin-7-yl]-cyclobutylmethyl}-2-piperidin-1-yl-acetamide] displayed a half-maximal inhibitory concentration (IC50) of 0.018 µM.

For the compound `NC(=O)[C@@H]1CCCN1C[C@H]1C[C@H](n2cc(-c3cccc(OCc4ccccc4)c3)c3c(N)ncnc32)C1` [Example 75, trans-(S)1-{3-[4-Amino-5-(3-benzyloxy-phenyl)-pyrrolo[2,3-d]pyrimidin-7-yl]-cyclobutylmethyl}-pyrrolidine-2-carboxylic acid amide], the IC50 came to 0.05 µM. With `CNC[C@H]1C[C@@H](n2cc(-c3cccc(OCc4ccccc4)c3)c3c(N)ncnc32)C1` [Example 9, cis-5-(3-Benzyloxy-phenyl)-7-(3-methylaminomethyl-cyclobutyl)-7H-pyrrolo[2,3-d]pyrimidin-4-ylamine] the figure was 0.042 µM.

Compound `CCNC(=O)NC[C@H]1C[C@@H](n2cc(-c3cccc(OCc4ccccc4)c3)c3c(N)ncnc32)C1` [Example 27, cis-{3-[4-Amino-5-(3-benzyloxy-phenyl)pyrrolo[2,3-d]pyrimidin-7-yl]-cyclobutylmethyl}-3-ethyl-urea] showed an IC50 of 0.05 µM. The value for `NC[C@H]1C[C@@H](n2cc(-c3cccc(OCc4ccccc4)c3)c3c(N)ncnc32)C1` [Example 1, cis-7-(3-aminomethyl-cyclobutyl)-5-(3-benzyloxy-phenyl)-7H-pyrrolo[2,3-d]pyrimidin-4-ylamine] was 0.062 µM. The value for `CC(C)NC(=O)NC[C@H]1C[C@@H](n2cc(-c3cccc(OCc4ccccc4)c3)c3c(N)ncnc32)C1` [Example 31, cis-1-{3-[4-Amino-5-(3-benzyloxy-phenyl)-pyrrolo[2,3-d]pyrimidin-7-yl]-cyclobutylmethyl}-3-isopropyl-urea] was 0.03 µM. With `Cc1c(-c2cccc(OCc3ccccc3)c2)c2c(N)ncnc2n1[C@H]1C[C@H](CN2CCC(O)CC2)C1` [Example 109, trans-1-{3-[4-Amino-5-(3-benzyloxy-phenyl)-6-methyl-pyrrolo[2,3-d]pyrimidin-7-yl]-cyclobutylmethyl}-piperidin-4-ol] the figure was 0.15 µM. `Nc1ncnc2c1c(-c1cccc(OCc3ccccc3)c1)cn2[C@H]1C[C@H](CNC(=O)N2CCCCC2)C1` [Example 90, trans-Piperidine-1-carboxylic acid {3-[4-amino-5-(3-benzyloxy-phenyl)-pyrrolo[2,3-d]pyrimidin-7-yl]-cyclobutylmethyl}-amide] returned an IC50 of 0.09 µM. With `NC[C@H]1C[C@H](n2cc(-c3cccc(OCc4ccccc4)c3)c3c(N)ncnc32)C1` [Example 2, trans-7-(3-aminomethyl-cyclobutyl)-5-(3-benzyloxy-phenyl)-7H-pyrrolo[2,3-d]pyrimidin-4-ylamine] the figure was 0.03 µM; with `COCCOC(=O)NC[C@H]1C[C@H](n2cc(-c3cccc(OCc4ccccc4)c3)c3c(N)ncnc32)C1` [Example 24, trans-{3-[4-Amino-5-(3-benzyloxy-phenyl)-pyrrolo[2,3-d]pyrimidin-7-yl]-cyclobutylmethyl}-carbamic acid 2-methoxy-ethyl ester], 0.095 µM; with `CNC[C@H]1C[C@H](n2cc(-c3cccc(OCc4ccccc4)c3)c3c(N)ncnc32)C1` [Example 10, trans-5-(3-Benzyloxy-phenyl)-7-(3-methylaminomethyl-cyclobutyl)-7H-pyrrolo[2,3-d]pyrimidin-4-ylamine], 0.07 µM.

`Cc1c(-c2cccc(OCc3ccccc3)c2)c2c(N)ncnc2n1[C@H]1C[C@H](CN2CCC2)C1` [Example 110, trans-7-(3-Azetidin-1-ylmethyl-cyclobutyl)-5-(3-benzyloxy-phenyl)-6-methyl-7-H-pyrrolo[2,3-d]pyrimidin-4-ylamine] displayed a half-maximal inhibitory concentration (IC50) of 0.14 µM. In turn, `Nc1ncnc2c1c(-c1cccc(OCc3ccccc3)c1)cn2[C@H]1C[C@@H](CN2CCC(O)CC2)C1` [Example 77, cis-1-{3-[4-Amino-5-(3-benzyloxy-phenyl)-pyrrolo[2,3-d]pyrimidin-7-yl]-cyclobutylmethyl}-piperidin-4-ol] displayed an IC50 of 0.05 µM. `Cc1c(-c2cccc(OCc3ccccc3)c2)c2c(N)ncnc2n1[C@H]1C[C@@H](CN2CCN(C)CC2)C1` [Example 117, cis-5-(3-Benzyloxy-phenyl)-6-methyl-7-[3-(4-methyl-piperazin-1-ylmethyl)-cyclobutyl]-7H-pyrrolo[2,3-d]pyrimidin-4-ylamine] came in with an IC50 of 0.13 µM.

For the origin of these results see patent US7326699B2, “4-Amino-5-phenyl-7-cyclobutyl-pyrrolo(2,3-d)pyrimidine derivatives” (Novartis AG, priority 2001, dated 2008).
